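Exposure lasted 48 hours, with cells grown in 96-well plates and compounds tested at five concentrations. The concentration for 50% growth inhibition is given as GI50. TGI denotes the concentration required for complete inhibition of growth.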
Legend:
Assay in all cases: growth of human tumour cells (NCI), 48 h
HOP-62 NSCLC = test system: HOP-62 NSCLC
SW-620 colon = test system: SW-620 colon
HT29 colon = test system: HT29 colon
TK-10 renal = test system: TK-10 renal
ACHN renal = test system: ACHN renal
A498 renal = test system: A498 renal
SN12C renal = test system: SN12C renal
SNB-75 CNS = test system: SNB-75 CNS
SR leukemia = test system: SR leukemia
IGROV1 ovarian = test system: IGROV1 ovarian

SMILES | TGI (HOP-62 NSCLC) [µM] | TGI (SW-620 colon) [µM] | TGI (HT29 colon) [µM] | TGI (TK-10 renal) [µM] | TGI (ACHN renal) [µM] | TGI (A498 renal) [µM] | TGI (SN12C renal) [µM] | TGI (SNB-75 CNS) [µM] | TGI (SR leukemia) [µM] | TGI (IGROV1 ovarian) [µM] | GI50 (HOP-62 NSCLC) [µM] | GI50 (SW-620 colon) [µM] | GI50 (SR leukemia) [µM] | GI50 (IGROV1 ovarian) [µM] | GI50 (HT29 colon) [µM] | GI50 (TK-10 renal) [µM] | GI50 (ACHN renal) [µM] | GI50 (A498 renal) [µM] | GI50 (SN12C renal) [µM] | GI50 (SNB-75 CNS) [µM]
CC1(C)C(=O)OC(n2cc(F)c(=O)[nH]c2=O)C1=O (configuration not stated) | > 100 | > 100 | > 100 | > 100 | > 100 | > 100 | > 100 | > 100 | – | – | – | – | – | – | – | – | – | – | – | –
CC1OC(n2cc(C(F)(F)F)c(=O)[nH]c2=O)C=CC1=O (configuration not stated) | 52.3 | 35.9 | 54.6 | 35.3 | 31.4 | – | 57.8 | 32.8 | 33.3 | 39.9 | – | – | – | – | – | – | – | – | – | –
Cc1ccc2c(c1)-c1c3c(nn1C)-c1ccccc1SC3O2 (configuration not stated) | > 100 | > 100 | > 100 | > 100 | > 100 | > 100 | – | > 100 | – | > 100 | – | – | – | – | – | – | – | – | – | –
COC(=O)c1c(O)ccc(O)c1C(C(C)=O)C(C)=O | > 100 | > 100 | > 100 | > 100 | – | > 100 | > 100 | > 100 | – | > 100 | – | – | – | – | – | – | – | – | – | –
COc1ccc(Cn2cc(COc3cc(/C=C/C(=O)c4cc(OC)c(OC)c(OC)c4)ccc3OC)nn2)cc1 | 7.97 | > 100 | 9.68 | 26.3 | > 100 | > 100 | > 100 | – | > 100 | > 100 | 2.72 | 3.63 | 2.7 | 4.14 | 3.65 | 3.7 | 4.47 | 12.8 | 3.62 | –
CC1(C)C(N2CCOCC2)CS1(=O)=O (configuration not stated) | > 10 | > 10 | > 10 | > 10 | > 10 | > 10 | > 10 | > 10 | – | > 10 | – | – | – | – | – | – | – | – | – | –
CCN(CC)CCNC(=O)c1cccc2c1-c1ccccc1C2=O | > 100 | > 100 | > 100 | > 100 | > 100 | > 100 | > 100 | > 100 | – | > 100 | > 100 | 90.1 | – | > 100 | > 100 | > 100 | > 100 | > 100 | > 100 | > 100
COc1cc2c(cc1OC)C(C(CCCCCC(CCC(C)C)C1NCCc3cc(OC)c(OC)cc31)CCC(C)C)NCC2 (configuration not stated) | 3.11 | 0.387 | 0.874 | 3.21 | 3.17 | 2.99 | 2.87 | 3.05 | – | 3.94 | 1.55 | 0.193 | – | 2.08 | 0.328 | 1.76 | 1.68 | 1.51 | 1.44 | 1.62
CN(C)NC(=O)/C(=C/c1ccc(Cl)cc1)NC(=O)c1ccccc1 | > 100 | – | > 100 | > 100 | > 100 | > 100 | > 100 | > 100 | > 100 | > 100 | – | – | – | – | – | – | – | – | – | –
COC(=O)C1C(C(=O)O)C2(c3ccccc3)C(=O)C1(c1ccccc1)C(c1ccccc1)=C2c1ccccc1 (configuration not stated) | 41.4 | 40.2 | – | 99 | 88.1 | 29.3 | 38.9 | – | 56.6 | 33 | 21.2 | 19.8 | 23.8 | 17.2 | – | 39.2 | 25.8 | 15.2 | 18 | –
C=C1C(=O)O[C@H](c2ccoc2)C[C@@H]1[C@@]1(C)CCCC2(C)C(=O)OCC21 (some centres not stated) | > 100 | > 100 | > 100 | > 100 | > 100 | > 100 | > 100 | > 100 | – | > 100 | – | – | – | – | – | – | – | – | – | –
O=C(Nc1ccncc1)C(=O)c1cn(S(=O)(=O)c2cccc(Cl)c2)c2ccccc12 | 48.1 | > 100 | > 100 | 75.9 | 57.1 | > 100 | > 100 | 23.2 | – | > 100 | 7.26 | 4.74 | – | 24.1 | 3.62 | 23.5 | 7.58 | 25.4 | 13 | 5.16
Nc1ccccc1C#C/C=C\C#Cc1ccccc1C#CCO | > 50 | 35.8 | – | 27.5 | 18.3 | – | 27.4 | 42.1 | > 50 | > 50 | 8.35 | 4.4 | 0.405 | 0.382 | – | 11.8 | 6.11 | – | 9.46 | 18
COc1ccc2c(c1)C(=Nc1ccc(F)c(Cl)c1)c1c-2c(Nc2ccc(F)c(Cl)c2)nc2ccccc12 | 32.4 | > 100 | > 100 | > 80 | > 70.8 | 86.8 | > 67 | – | 0.0862 | > 100 | 13.7 | > 100 | 0.0122 | 30.1 | > 100 | 34.5 | 24.1 | 28.1 | 33.8 | –
O=c1nc2sc3ccccc3c(=O)n2[nH]1 | > 100 | > 100 | > 100 | > 100 | > 100 | – | > 100 | > 100 | > 100 | > 100 | – | – | – | – | – | – | – | – | – | –
N#C/C(=C\c1c(O)cc(O)cc1O)C(N)=O | > 100 | > 100 | > 100 | > 100 | > 100 | > 100 | > 100 | > 100 | – | – | – | – | – | – | – | – | – | – | – | –
COc1cccc(Nc2ncnc3cc(NC(=O)CCl)ccc23)c1 | 3.06 | 2.1 | 1.85 | 2.52 | 2.34 | 3.81 | 2.44 | 2.28 | – | 2.25 | 1.48 | 0.612 | – | 0.568 | 0.499 | 1.2 | 1.08 | 1.72 | 1.15 | 0.379

Reference: PubChem BioAssay (NCI)
